According to patent US10080751B2, “Systems and methods for treating bacterial infection” (priority 2016, dated 2018):

Assays:
[1] = tested on: S. aureus strain AH1252; assay: Neutropenic rat lung infection model; type: in vivo; settings: iclaprim 80 mg/kg
Method: S. aureus strain AH1252, a thymidine knockout of the MRSA wild type AW6 strain, was utilized for this study. The bacterial strain was diluted in a 2% alginate buffer, which was added dropwise in a ratio of 1:5 into […] to form alginate beads. The alginate beads reduce the efficacy of bacterial clearance similar to that seen in the cystic fibrosis population. A 5.25×10^4 bacterial inoculum was administered to groups of 9 rats, intratracheally, with prepared alginate bacteria suspensions, under isoflurane anesthesia. […] Twelve hours after the last treatment, rats were euthanized and lungs collected for CFU determination.

[2] = tested on: nosocomial pneumonia suspected or confirmed to be caused by Gram-positive pathogens; settings: intent-to-treat, test of cure visit; vancomycin 1 g IV q12h; cited from earlier work
[3] = SC/BID 3 days, vancomycin 50 mg/kg

## CN[C@H](CC(C)C)C(=O)N[C@H]1C(=O)N[C@@H](CC(N)=O)C(=O)N[C@H]2C(=O)N[C@H]3C(=O)N[C@H](C(=O)N[C@H](C(=O)O)c4cc(O)cc(O)c4-c4cc3ccc4O)[C@H](O)c3ccc(c(Cl)c3)Oc3cc2cc(c3O[C@@H]2O[C@H](CO)[C@@H](O)[C@H](O)[C@H]2O[C@H]2C[C@](C)(N)[C@H](O)[C@H](C)O2)Oc2ccc(cc2Cl)[C@H]1O [Vancomycin]
[1]; [3]
  72 hour lungs (CFU/gram of lung) log10CFU/Lung: 5.30 log10CFU/Lung
  Change in CFUs from 2 hr.: 2.18 log 10 CFU
[1]; SC/BID 3 days, vancomycin 50 mg/kg, 9 rats
  Survival >60 hrs: 8/9
[1]; vancomycin 50 mg/kg SC/BID
  survival compared to the infection controls: increased survival
[1]; vs 72 hr infection controls, vancomycin 50 mg/kg SC/BID
  Change in CFUs from 72 hr.: −3.38 log 10 CFU
[2]
  cure rate: 52.2%
